Experimental data published in ChEMBL document CHEMBL1201862, “PubChem BioAssay data set” (2004).
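Five concentrations, 48 hours, 96-well plates. GI50 marks 50% less growth.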 Active and inactive are the calls of the source. Rule as the data show it: active = GI50 up to about 1.1 µM and inactive = higher.

Legend:
Experiment in all cases: growth of human tumour cells (NCI), 48 h
NCI-H460 = test system: NCI-H460
Hs-578T = test system: Hs-578T
PC-3 = test system: PC-3
BT-549 = test system: BT-549
HL-60 = test system: HL-60
OVCAR-4 = test system: OVCAR-4
HOP-62 = test system: HOP-62
A498 = test system: A498
HT-29 = test system: HT-29
TK-10 = test system: TK-10
RXF 393 = test system: RXF 393
EKVX = test system: EKVX
MOLT-4 = test system: MOLT-4
SF-539 = test system: SF-539
SK-OV-3 = test system: SK-OV-3
NCI-H522 = test system: NCI-H522
KM12 = test system: KM12
DU-145 = test system: DU-145
OVCAR-3 = test system: OVCAR-3
OVCAR-5 = test system: OVCAR-5
CCRF-CEM = test system: CCRF-CEM
OVCAR-8 = test system: OVCAR-8
MDA-MB-435 = test system: MDA-MB-435
CAKI-1 = test system: CAKI-1
SW-620 = test system: SW-620
M14 = test system: M14
SF-268 = test system: SF-268
UACC-62 = test system: UACC-62
SF-295 = test system: SF-295
HCT-15 = test system: HCT-15
MCF7 = test system: MCF7
U-251 = test system: U-251
SN12C = test system: SN12C
MDA-N = test system: MDA-N
COLO 205 = test system: COLO 205
HOP-92 = test system: HOP-92
SNB-75 = test system: SNB-75
NCI-H23 = test system: NCI-H23
Malme-3M = test system: Malme-3M
HCT-116 = test system: HCT-116
SNB-19 = test system: SNB-19
A549 = test system: A549
HCC 2998 = test system: HCC 2998
UO-31 = test system: UO-31
K562 = test system: K562
SK-MEL-28 = test system: SK-MEL-28
IGROV-1 = test system: IGROV-1
UACC-257 = test system: UACC-257
SK-MEL-5 = test system: SK-MEL-5
786-0 = test system: 786-0
SR = test system: SR
RPMI-8226 = test system: RPMI-8226
NCI-H226 = test system: NCI-H226
MDA-MB-231 = test system: MDA-MB-231
ACHN = test system: ACHN
LOX IMVI = test system: LOX IMVI
NCI/ADR-RES = test system: NCI/ADR-RES
SK-MEL-2 = test system: SK-MEL-2
T47D = test system: T47D

Measured: GI50

O=C1O/C(=C(/Cl)c2cccc3ccccc23)c2ccccc21
inactive: NCI-H460 > 100 µM | Hs-578T 32.4 µM | PC-3 > 100 µM | BT-549 > 100 µM | HL-60 > 100 µM | OVCAR-4 > 100 µM | HOP-62 46.3 µM | A498 > 100 µM | HT-29 > 100 µM | TK-10 > 100 µM | RXF 393 > 100 µM | EKVX > 100 µM | MOLT-4 > 100 µM | SF-539 > 100 µM | SK-OV-3 > 100 µM | NCI-H522 52.1 µM | KM12 7.62 µM | DU-145 > 100 µM | OVCAR-3 > 100 µM | OVCAR-5 > 100 µM | CCRF-CEM > 10 µM | OVCAR-8 > 100 µM | MDA-MB-435 > 100 µM | CAKI-1 > 100 µM | SW-620 > 100 µM | M14 > 100 µM | SF-268 81.1 µM | UACC-62 > 100 µM | SF-295 47 µM | U-251 96.8 µM | SN12C > 100 µM | MDA-N > 100 µM | COLO 205 > 100 µM | HOP-92 > 100 µM | SNB-75 22.2 µM | NCI-H23 > 100 µM | Malme-3M > 100 µM | HCT-116 > 100 µM | SNB-19 > 100 µM | A549 > 100 µM | HCC 2998 > 100 µM | UO-31 > 100 µM | K562 > 100 µM | SK-MEL-28 > 100 µM | IGROV-1 > 100 µM | UACC-257 > 100 µM | SK-MEL-5 > 100 µM | 786-0 82.2 µM | SR > 100 µM | RPMI-8226 > 100 µM
> 100 µM: HCT-15
active: MCF7 0.735 µM

COc1ccc2c(c1)CC1Cc3cc(OC)c(OC)cc3CN1CC2 (centres undefined)
inactive: NCI-H226 21.7 µM | NCI-H460 23 µM | Hs-578T 53 µM | MDA-MB-231 42.6 µM | ACHN 21.5 µM | LOX IMVI 23.5 µM | PC-3 37.4 µM | BT-549 32.6 µM | HL-60 11.1 µM | OVCAR-4 38.5 µM | HOP-62 71.3 µM | A498 28.6 µM | HT-29 10.1 µM | TK-10 22.2 µM | RXF 393 21 µM | EKVX 32.8 µM | MOLT-4 24 µM | SK-OV-3 71.6 µM | NCI-H522 34.6 µM | KM12 34.7 µM | NCI/ADR-RES 31.8 µM | DU-145 36.6 µM | OVCAR-3 72.4 µM | SK-MEL-2 70.1 µM | OVCAR-5 56 µM | CCRF-CEM 19.5 µM | OVCAR-8 33.8 µM | MDA-MB-435 37.9 µM | CAKI-1 35.5 µM | SW-620 47.1 µM | M14 48.2 µM | SF-268 82.2 µM | UACC-62 25.2 µM | SF-295 32.7 µM | U-251 49.5 µM | COLO 205 23.7 µM | HOP-92 11.6 µM | T47D 23.9 µM | SNB-75 29.7 µM | NCI-H23 46.5 µM | Malme-3M 40.2 µM | HCT-116 23.5 µM | SNB-19 35.3 µM | A549 42.4 µM | HCC 2998 33.4 µM | UO-31 15.3 µM | K562 17.5 µM | SK-MEL-28 42.8 µM | IGROV-1 17.3 µM | UACC-257 33.8 µM | SK-MEL-5 21.3 µM | 786-0 27.2 µM | SR 17.7 µM | RPMI-8226 25.8 µM
44.7 µM: HCT-15

COc1cccc(-c2[nH]c3cc4c(cc3c(=O)c2C(=O)O)OCO4)c1
inactive: NCI-H226 43.5 µM | NCI-H460 43.7 µM | MDA-MB-231 57.5 µM | ACHN 86.7 µM | LOX IMVI 42.3 µM | PC-3 57.5 µM | BT-549 51.3 µM | OVCAR-4 28.6 µM | HOP-62 62.8 µM | A498 34.4 µM | HT-29 34.2 µM | RXF 393 39.2 µM | EKVX 79.1 µM | MOLT-4 24.2 µM | SF-539 28.8 µM | KM12 36.7 µM | NCI/ADR-RES 17.8 µM | DU-145 38.7 µM | OVCAR-3 44.4 µM | SK-MEL-2 78.7 µM | OVCAR-5 > 100 µM | CCRF-CEM 27.4 µM | OVCAR-8 23.2 µM | MDA-MB-435 8.39 µM | CAKI-1 72.8 µM | SW-620 29 µM | M14 26 µM | UACC-62 33.6 µM | SF-295 23.8 µM | MCF7 41 µM | U-251 37.2 µM | SN12C 40.6 µM | MDA-N 9.84 µM | COLO 205 26.5 µM | HOP-92 27.5 µM | T47D > 100 µM | SNB-75 84.1 µM | NCI-H23 31.9 µM | HCT-116 32.8 µM | SNB-19 43.4 µM | A549 44.7 µM | HCC 2998 32.8 µM | UO-31 49.2 µM | K562 34.5 µM | SK-MEL-28 37 µM | IGROV-1 37.8 µM | UACC-257 > 100 µM | SK-MEL-5 31 µM | 786-0 44.8 µM | SR 8.73 µM | RPMI-8226 41.2 µM
28.4 µM: HCT-15
